# Where two headings read alike, the source gives them in different places.
# How the values were obtained:
# [1] = test system: diabetic (STZ) and nondiabetic male Wistar rats; settings: for Renal clearance Cu / Renal clearance Fe / Serum Cu / Serum Fe: trientine; for Renal clearance Cu / Renal clearance Fe: final hour of experiment; for Serum Cu / Serum Fe: terminal blood sample
# Method: (§1) Following surgery and a 20 min stabilization period, the experimental protocol was started. Trientine was administered intravenously over 60 s in hourly doses of increasing concentration (0.1, 1.0, 10 and 100 mg·kg^−1 in 75 μl saline followed by 125 μl saline flush). Control animals received an equivalent volume of saline. Urine was collected in 15 min aliquots throughout the experiment in pre-weighed polyethylene epindorph tubes. At the end of the experiment a terminal blood sample was taken by cardiac puncture and the separated serum stored at −80° C. until future analysis. Hearts were removed through a rapid mid-sternal thoracotomy and processed as described below.
# Serum: Terminal blood samples were centrifuged and serum treated and stored as per urine until analysis. From the trace metal content of serum from the terminal blood sample and urine collected over the final hour of the experiment, renal clearance was calculated using the following equation: renal clearance of trace metal=(a) the concentration of metal in urine (μg·μl^−1) times (b) the rate of urine flow (μl·min^−1), divided by (c) the concentration of metal in serum (μg·μl^−1)
# [2] = test system: diabetic (STZ) and nondiabetic male Wistar rats
# Description: (§2) Nondiabetic animals received an equivalent volume of saline.
# (§3) All animals were fasted overnight prior to surgery but continued to have ad libitum access to deionized water. […] The femoral artery and vein were cannulated with a solid-state blood pressure transducer (Mikrotip™ 1.4F, Millar Instruments, Texas, USA) and a saline filled PE 50 catheter respectively. The ureters were exposed via a midline abdominal incision, cannulated using polyethylene catheters (external diameter 0.9 mm, internal diameter 0.5 mm) and the wound sutured closed. The trachea was cannulated and the animal ventilated at 70-80 breaths·min^−1 with air supplemented with O2 (Pressure Controlled Ventilator, Kent Scientific, Connecticut, USA). The respiratory rate and end-tidal pressure (10-15 cm H2O) were adjusted to maintain end-tidal CO2 at 35-40 mm Hg (SC-300 CO2 Monitor, Pryon Corporation, Wisconsin, USA). Body temperature was maintained at 37° C. throughout surgery and the experiment by a heating pad. Estimated fluid loss was replaced with intravenous administration of 154 mmol·l^−1 NaCl solution at a rate of 5 ml·kg^−1·h^−1.
# as §1
# Mean arterial pressure (MAP), heart rate (HR, derived from the MAP waveform) oxygen saturation (Nonin 8600V Pulse Oximeter, Nonin Medical Inc., Minnesota, USA) and core body temperature, were all continuously monitored throughout the experiment using a PowerLab/16s data acquisition module (AD Instruments, Australia).
# diabetic Wistar rats = settings: six months of treatment
# [3] = test system: STZ diabetic and normal Wistar rats
# Method: On the last day of the experiment, animals were anesthetized (5% halothane and 2 L·min^−1 O2), and heparin (500 IU·kg^−1) (Weddel Pharmaceutical Ltd., London) administered intravenously via tail vein. […] Hearts were then placed in the isolated perfused working heart apparatus.
# The aortic root of the heart was immediately ligated to the aortic cannula of the perfusion apparatus. Retrograde (Langendorff) perfusion at a hydrostatic pressure of 100 cm H2O and at 37° C. was established and continued for 5 min while cannulation of the left atrium via the pulmonary vein was completed. The non-working (Langendorff) preparation was then converted to the working heart model by switching the supply of perfusate buffer from the aorta to the left atrium at a filling pressure of 10 cm H2O. […] The perfusion solution was Krebs-Henseleit bicarbonate buffer (mM: KCl 4.7, CaCl2 2.3, KH2PO4 1.2, MgSO4 1.2, NaCl 118, and NaHCO3 25), pH 7.4 containing 11 mM glucose and it was continuously gassed with 95% O2:5% CO2. The buffer was also continuously filtered in-line (initial 8 μm, following 0.4 μm cellulose acetate filters; Sartorius, Germany). The temperature of the entire perfusion apparatus was maintained by water jackets and buffer temperature was continuously monitored and adjusted to maintain hearts at 37° C. throughout perfusion.
# A modified 24 g plastic intravenous cannula (Becton Dickson, Utah, USA) was inserted into the left ventricle via the apex of the heart using the normal introducer-needle. This cannula was subsequently attached to a SP844 piezo-electric pressure transducer (AD Instruments) to continuously monitor left ventricular pressure. Aortic pressure was continuously monitored through a side arm of the aortic cannula with a pressure transducer (Statham Model P23XL, Gould Inc., CA, USA). The heart was paced (Digitimer Ltd, Heredfordshire, England) at a rate of 300 bpm by means of electrodes attached to the aortic and pulmonary vein cannulae using supra-threshold voltages with pulses of 5-ms duration from the square wave generator.
# [4] = test system: diabetic (STZ) and nondiabetic male Wistar rats; remark: listed apart in the source
# Description: as §2, §3, §1
# Instrumentation: A Perkin Elmer (PE) Model 3100 Atomic Absorption Spectrophotometer equipped with a PE HGA-600 Graphite Furnace and PE AS-60 Furnace Autosampler was used for Cu and Fe determinations in urine. Deuterium background correction was employed. A Cu or Fe hollow-cathode lamp (Perkin Elmer Corporation) was used and operated at either 10 W (Cu) or 15 W (Fe). The 324.8 nm atomic line was used for Cu and the 248.3 nm atomic line for Fe. The slit width for both Cu and Fe was 0.7 nm. Pyrolytically coated graphite tubes were used for all analyses. The injection volume was 20 μL. A typical graphite furnace temperature program is shown below.
# Urine: Urine was collected in pre-weighed 1.5 ml micro test tubes (eppendorf). After reweighing, the urine specimens were centrifuged and the supernatant diluted 25:1 with 0.02 M 69% Aristar grade HNO3. The sample was stored at 4° C. prior to GF-AAS analysis. If it was necessary to store a sample for a period in excess of 2 weeks, it was frozen and kept at −20° C.
# Statistical analyses were as follows: All values are expressed as mean±SEM and P values <0.05 were considered statistically significant. Student's unpaired t-test was initially used to test for weight and glucose differences between the diabetic and control groups.
# [5] = test system: diabetic (STZ) and nondiabetic male Wistar rats; settings: for Cu content of heart tissue / Fe content of heart tissue: trientine treated
# Method: as §1
# Cu, Fe and Zn in tissue digests were also determined at Hill Laboratories (Hamilton, New Zealand) using either a PE Sciex Elan-6000 or PE Sciex Elan-6100 DRC ICP-MS.
# Heart: Following removal from the animal, the heart was cleaned of excess tissue, rinsed in buffer to remove excess blood, blotted dry and a wet ventricular weight recorded. Using titanium instruments a segment of left ventricular muscle was dissected and placed in a pre-weighed 5.0 ml polystyrene tube. The sample was freeze-dried overnight to constant weight before 0.45 ml of 69% Aristar grade HNO3 was added. The sample tube was heated in a water bath at 65° C. for 60 minutes. The sample was brought to 4.5 ml with Milli-Q H2O. The resulting solution was diluted 2:1 in order to reduce the HNO3 concentration below the maximum permitted for ICP-MS analysis.
# [6] = test system: STZ diabetic and normal Wistar rats; settings: for Heart weight / Heart weight (g)/BW (g) / Left Ventricular wall thickness / Left Ventricular wall thickness per BW: mean ± SD
# diabetic rats = settings: treatment of diabetic rats; cited from earlier work
# [7] = diabetic and nondiabetic animals
# [8] = STZ/D7 (diabetic, trientine weeks 7-13)
# [9] = Sham/D7 (non-diabetic, trientine weeks 7-13)
smiles,measurement,setting,value
"NCCNCCNCCN [trientine, N,N′-Bis(2-aminoethyl)-1,2-ethanedi-amine]","serum content or renal clearance of iron, effect of drug",[1]; [7],no effect
same,"serum copper content, drug versus saline",[1]; [7],no significant difference
same,"renal clearance of copper, drug versus saline",[1]; diabetic animals,significant increase
same,Renal clearance Cu,"[1]; diabetic, n = 6",*28.5 ± 4.8 μl · min^−1
same,Renal clearance Fe,"[1]; diabetic, n = 6",0.25 ± 0.07 µL/min
same,Serum Cu,"[1]; diabetic, n = 6",7.56 ± 0.06 μg · μl^−1 × 10^−4
same,Serum Fe,"[1]; diabetic, n = 6",35.7 ± 7.98 μg · μl^−1 × 10^−4
same,"increase in renal clearance of copper, drug versus saline",[1]; nondiabetic animals (P=0.056),not statistically significant
same,Renal clearance Cu,"[1]; nondiabetic, n = 4",19.9 ± 6.4 µL/min
same,Renal clearance Fe,"[1]; nondiabetic, n = 4",0.46 ± 0.22 µL/min
same,Serum Cu,"[1]; nondiabetic, n = 4",7.11 ± 0.41 μg · μl^−1 × 10^−4
same,Serum Fe,"[1]; nondiabetic, n = 4",33.6 ± 1.62 μg · μl^−1 × 10^−4
same,adverse cardiovascular effects,"[2]; after acute administration, 0.1-100 mg·kg^−1 i.v.",no adverse cardiovascular effects
same,body temperature and oxygen saturation,[2]; all animals throughout the experiment,remained stable
same,time for MAP to return to pre-dose levels,[2]; highest dose (100 mg·kg^−1 i.v.),≤ 10 min
same,maximum decrease in MAP,"[2]; highest dose (100 mg·kg^−1 i.v.), for the 2 min following administration",19±4 mm Hg
same,MAP and HR during infusion,"[2]; i.v. hourly increasing doses, all doses except the highest, diabetic and nondiabetic rats",no effect
same,protection of hearts from development of diabetic damage (cardiomyopathy) as judged by histology,diabetic Wistar rats,appears to protect
same,Percentage functioning at each afterload,"[3]; STZ/D7 (diabetic, trientine weeks 7-13), afterload 55.9 mmHg",100%
same,Number surviving (aortic flow >0 mls/min),"[3]; STZ/D7 (diabetic, trientine weeks 7-13, N 8), afterload 55.9 mmHg",8
same,Number surviving (aortic flow >0 mls/min),"[3]; STZ/D7, afterload 61.8 mmHg",8
same,Percentage functioning at each afterload,"[3]; STZ/D7, afterload 61.8 mmHg",100%
same,Number surviving (aortic flow >0 mls/min),"[3]; STZ/D7, afterload 67.7 mmHg",8
same,Percentage functioning at each afterload,"[3]; STZ/D7, afterload 67.7 mmHg",100%
same,Number surviving (aortic flow >0 mls/min),"[3]; STZ/D7, afterload 71.4 mmHg",8
same,Percentage functioning at each afterload,"[3]; STZ/D7, afterload 71.4 mmHg",100%
same,Number surviving (aortic flow >0 mls/min),"[3]; STZ/D7, afterload 77.2 mmHg",8
same,Percentage functioning at each afterload,"[3]; STZ/D7, afterload 77.2 mmHg",100%
same,Number surviving (aortic flow >0 mls/min),"[3]; STZ/D7, afterload 83.1 mmHg",8
same,Percentage functioning at each afterload,"[3]; STZ/D7, afterload 83.1 mmHg",100%
same,Number surviving (aortic flow >0 mls/min),"[3]; STZ/D7, afterload 88.3 mmHg",7
same,Percentage functioning at each afterload,"[3]; STZ/D7, afterload 88.3 mmHg",88%
same,Number surviving (aortic flow >0 mls/min),"[3]; STZ/D7, afterload 94.9 mmHg",6
same,Percentage functioning at each afterload,"[3]; STZ/D7, afterload 94.9 mmHg",75%
same,Number surviving (aortic flow >0 mls/min),"[3]; STZ/D7, afterload 100.8 mmHg",5
same,Percentage functioning at each afterload,"[3]; STZ/D7, afterload 100.8 mmHg",63%
same,Number surviving (aortic flow >0 mls/min),"[3]; STZ/D7, afterload 106.7 mmHg",1
same,Percentage functioning at each afterload,"[3]; STZ/D7, afterload 106.7 mmHg",13%
same,Percentage functioning at each afterload,"[3]; Sham/D7 (non-diabetic, trientine weeks 7-13), afterload 55.9 mmHg",100%
same,Number surviving (aortic flow >0 mls/min),"[3]; Sham/D7 (non-diabetic, trientine weeks 7-13, N 11), afterload 55.9 mmHg",11
same,Number surviving (aortic flow >0 mls/min),"[3]; Sham/D7, afterload 61.8 mmHg",11
same,Percentage functioning at each afterload,"[3]; Sham/D7, afterload 61.8 mmHg",100%
same,Number surviving (aortic flow >0 mls/min),"[3]; Sham/D7, afterload 67.7 mmHg",11
same,Percentage functioning at each afterload,"[3]; Sham/D7, afterload 67.7 mmHg",100%
same,Number surviving (aortic flow >0 mls/min),"[3]; Sham/D7, afterload 71.4 mmHg",11
same,Percentage functioning at each afterload,"[3]; Sham/D7, afterload 71.4 mmHg",100%
same,Number surviving (aortic flow >0 mls/min),"[3]; Sham/D7, afterload 77.2 mmHg",11
same,Percentage functioning at each afterload,"[3]; Sham/D7, afterload 77.2 mmHg",100%
same,Number surviving (aortic flow >0 mls/min),"[3]; Sham/D7, afterload 83.1 mmHg",11
same,Percentage functioning at each afterload,"[3]; Sham/D7, afterload 83.1 mmHg",100%
same,Number surviving (aortic flow >0 mls/min),"[3]; Sham/D7, afterload 88.3 mmHg",11
same,Percentage functioning at each afterload,"[3]; Sham/D7, afterload 88.3 mmHg",100%
same,Number surviving (aortic flow >0 mls/min),"[3]; Sham/D7, afterload 94.9 mmHg",11
same,Percentage functioning at each afterload,"[3]; Sham/D7, afterload 94.9 mmHg",100%
same,Number surviving (aortic flow >0 mls/min),"[3]; Sham/D7, afterload 100.8 mmHg",11
same,Percentage functioning at each afterload,"[3]; Sham/D7, afterload 100.8 mmHg",100%
same,Number surviving (aortic flow >0 mls/min),"[3]; Sham/D7, afterload 106.7 mmHg",9
same,Percentage functioning at each afterload,"[3]; Sham/D7, afterload 106.7 mmHg",82%
same,cardiac output,"[3]; drug treated diabetic group, pre-load increased (5-20 cm H2O), after-load constant",restored to Sham values
same,aortic and absolute coronary flows,"[3]; drug treated diabetic group, pre-load increased, after-load constant",improved
same,"indicators for ventricular contraction and relaxation (+dP/dt, −dP/dt)",[3]; drug treated versus untreated diabetic group,significantly improved
same,heart's ability to function at higher after-loads,"[3]; drug treated versus untreated diabetic group, constant pre-load",greatly improved
same,adverse effects on cardiac performance,[3]; drug treatment of normal animals (Sham/D7),no adverse effects
same,cardiac function overall,"[3]; oral trientine for 7 weeks, Wistar rats with established diabetes of 6 weeks duration",global improvement in cardiac function
same,trientine treated diabetic hearts still functioning,[3]; when 50% of the untreated diabetic hearts had failed,about 90%
same,"copper excretion versus saline, mixed linear model",[4]; all dose levels,significantly higher excretion of copper
same,greater iron excretion per gram of body weight in diabetic than nondiabetic animals,[4]; animals receiving trientine,not evident
same,total iron excretion versus saline,[4]; both diabetic and nondiabetic animals,not different
same,total copper excreted over the entire duration of the experiment versus saline controls,[4]; both nondiabetic and diabetic animals,significantly increased
same,increase of urine excretion versus equivalent volume of saline,"[4]; diabetic animals, 100 mg·kg^−1 i.v.",not seen
same,"iron excretion (μg), saline versus drug","[4]; diabetic animals, at most doses",greater in animals administered saline than in those administered drug
same,"diabetes x drug interaction effect on copper excretion, mixed linear model",[4]; dose levels of 1.0 mg·kg^−1 and above,significant
same,"total copper per gram of body weight, diabetic versus nondiabetic animals receiving drug",[4]; entire experiment,excreted more total copper per gram of body weight
same,"copper excretion per gram of body weight, diabetic versus nondiabetic animals",[4]; in response to each dose of drug,significantly greater copper excretion per gram of body weight
same,greater total iron excretion per gram of body weight in diabetic than nondiabetic animals,[4]; in response to trientine,not seen
same,urine excretion versus equivalent volume of saline,"[4]; nondiabetic animals, 100 mg·kg^−1 i.v.",increased urine excretion
same,effect of drug on cardiac content of iron and copper,[5]; acute i.v. administration,nor any effect of drug
same,"content of copper in cardiac tissue, diabetic versus nondiabetic animals",[5]; animals receiving saline or trientine,no significant difference
same,Cu content of heart tissue,[5]; diabetic,24.7 ± 1.5 μg · g^−1 dry tissue
same,Fe content of heart tissue,[5]; diabetic,186 ± 46 μg · g^−1 dry tissue
same,Cu content of heart tissue,[5]; nondiabetic,27.1 ± 1.0 μg · g^−1 dry tissue
same,Fe content of heart tissue,[5]; nondiabetic,235 ± 39 μg · g^−1 dry tissue
same,Heart weight,[6]; [8],1.18 ± 0.24 g
same,Heart weight (g)/BW (g),[6]; [8],0.0041 ± 0.0005^
same,Left Ventricular wall thickness,[6]; [8],3.79 ± 0.52 mm
same,Left Ventricular wall thickness per BW,[6]; [8],0.0127 ± 0.0027^ (mm)/(g)
same,Heart weight,[6]; [9],1.58 ± 0.05 g
same,Heart weight (g)/BW (g),[6]; [9],0.0028 ± 0.0001
same,Left Ventricular wall thickness,[6]; [9],4.03 ± 0.1 mm
same,Left Ventricular wall thickness per BW,[6]; [9],0.0072 ± 0.0003 (mm)/(g)
same,"heart:body weight ratio, treated versus untreated diabetic animals","[6]; diabetic animals, trientine weeks 7-13",small but significant improvement
same,"ventricular wall thickness:bodyweight ratio, treated versus non-treated diabetics",[6]; did not reach significance,trend toward improved
same,"blood glucose profile, treated versus untreated comparison group","[6]; either treated group (STZ/D7, Sham/D7), p=ns",no difference
N=C(N)NN [aminoguanidine],aortic impedance,diabetic rats,decreases
same,carotid artery compliance,diabetic rats,increased
same,myocardial compliance,diabetic rats,prevented the decreased myocardial compliance

# — patent US8034799B2, “Preventing and/or treating cardiovascular disease and/or associated heart failure” (Philera New Zealand Limited, priority 2002, dated 2011)
